According to patent US12396997B2, “Methods of treatment with an iboga alkaloid” (priority 2022, dated 2025):
Several values for one entry are separate records, joined by “and”; a condition that tells them apart may be missing. Equal values may be shown once. Entries after “also recorded” stand apart in the source; their conditions may differ.

Key:
[1] = system: cortical neuron; conditions: in vitro; literature; cited from earlier work
[2] = system: special operations veterans with history of TBI; assay: Structural T1w MRI (FreeSurfer) regional volume and cortical thickness; format: in vivo, human
Description: Structural imaging of the brain was also conducted on some of the subjects of Example 1. Gray matter constitutes about 40% of the brain and white matter constitutes about 60% of the brain. Gray matter contains most of the brain's neuronal cell nodes, it is fully developed once a person reaches their 20's and interprets sensor information from various parts of the body. White matter is made up of bundles which connect various gray matter areas, it develops throughout the 20's and peaks in middle age. Typical metrics analyzed in anatomical (T1-weighted. “T1w”) imaging include volume and/or shape of nuclei (e.g. caudate), volume and/or shape of ventricles of the brain, and cortical thickness (mm). These metrics can be used to study normal and abnormal neuroanatomy and are primarily used to quantify gray matter. A tool called FreeSurfer was applied to images for a T1w structural analysis (volume, cortical thickness) to adjust for bias, remove non-brain matter, segments by tissue, parcels the brain into standardized regions, and provides measurements of those regions. FreeSurfer measurements of whole brain volume, volume by tissue (gray, white, CSF), estimated intracranial volume (ICV), subcortical gray matter volume, cortical volume by region were done. […] In particular, analysis was done to determine if there was any loss in gray matter volume or cortical thickness, whether there was a loss in white matter volume or an increase in presence of white matter […].
The fMRI images were also inspected to determine the difference in volume in regional areas of the brain from baseline to one month after treatment. FIG. 8A is a bar graph showing the effect size of a change in volume in 47 brain regions indicated along the x-axis. […] The fMRI images were also inspected for whole brain thickness at baseline and one month after treatment. […] FIG. 8B is a bar graph showing the effect size of a cortical thickness change for the brain regions indicated along the x-axis, from baseline to one month after treatment. […] The right and left parahippocampal gyrus are involved in visuospatial processing, including scene perception, navigation, and emotional contextualization. The left orbitofrontal gyrus is involved in impulse control and reward valuation. The left insular cortex is associated with both the affective-perceptual and cognitive-evaluative forms of empathy, as well as awareness of hunger, pain and fatigue. The left entorhinal cortex is a widespread network hub for memory, navigation, and perception of time.

[3] = orally administered to humans; cited from earlier work
[4] = system: special operations veterans with history of TBI; assay: MADRS (Montgomery-Asberg Depression Rating Scale), incl. suicidal ideation item Q10; format: in vivo, human
Description: (§1) With subjects in the fasting state, an intravenous infusion of 1 gram of magnesium sulfate was administered 1-2 hours prior to treatment. […] Medical staff (MD, RN, or EMT) were onsite at a ratio of at least 1 staff per 2 patients throughout treatment for monitoring and management, but no specific coaching or psychological support was provided during treatment.
(§2) Post treatment, each subject was assessed four days after treatment, one month after treatment, and, if willing, one year after treatment. The post-treatment assessments conducted at four days and at one month after treatment included neuropsychological testing, measures of PTSD, depression, anxiety, mystical experiences, functional imaging and EEG. Post-treatment assessments conducted at one year after treatment included PTSD, depression, and anxiety measures.
MADRS testing provides an indication of depressive symptoms, CAPS-5 provides an indication of PTSD and SIGH-A provides an indication of anxiety. Collectively these overlap to provide indication of mood, concentration, sleep and tension.
The MADRS is a clinician-administered 10-item scale assessing the severity of depression symptoms. […] A total score of 0-6 indicates no depression, 7-19 mild depression, 20-34 moderate depression, 35-59 severe depression, and 60+ very severe depressive symptoms (Müller, M. J., J. Affect. Disord. 77, 255-260 (2003)).

[5] = system: special operations veterans with history of TBI; assay: CAPS-5 (Clinician-administered PTSD Scale for DSM-5); format: in vivo, human
Description: (§3) Thirty, male, navy seal or army special forces veterans, ages 33-58 years (mean 44.5 years), were enrolled. Of the 30 participants, 27 were Caucasian, 1 was Hispanic and 2 were Native American. Body mass index was between 17-35 kg/m^2.
as §1
as §2, with “measures. […]” for “measures.”

[6] = system: special operations veterans with history of TBI; assay: Hamilton Anxiety Rating Scale (HAM-A); format: in vivo, human
Description: as §3, §1
as §2, with “measures. […]” for “measures.”

[7] = system: special operations veterans with history of TBI; assay: Predicted brain age from MRI with brain age model; format: in vivo, human; conditions: one-month post treatment; FIG. 9D
Description: A predictive model of normal aging defined using machine learning in healthy individuals, based on magnetic resonance imaging-derived estimates of gray matter and white matter (Id.) was applied to the MRI images from the subjects enrolled in the study of Example 1. […] There was a significant reversal of brain age from baseline to one month after treatment. The mean decrease in brain age was 1.3 years (corrected p=0.03).
At baseline, the brain age estimate for the 24 subjects was 40.89 years. […] The average decrease in brain age from baseline one month after treatment was 1.4 years.

[8] = system: N-methyl-D-aspartate, kappa and mu opioid, sigma-1 and -2, nicotinic acetylcholine, serotonin transporter, and dopamine transporter; conditions: literature; cited from earlier work
[9] = system: people; conditions: in vivo; cited from earlier work
[10] = system: special operations veterans with history of TBI; conditions: in vivo
[11] = system: special operations veterans with history of TBI; assay: World Health Organization Disability Assessment Scale 2.0 (WHODAS 2.0); format: in vivo, human; conditions: for WHODAS 2.0 Subscale Self Care: baseline 5.2% ± 9.2%; for WHODAS 2.0 Subscale Mobility: baseline 14.7% ± 15.7%
Description: as §3, §1, §2
World Health Organization Disability Assessment Scale 2.0 (WHODAS 2.0) was used as a measure of function. WHODAS was used to assess the impact of health conditions across six life domains (cognition, mobility, self-care, interpersonal, life activities, and community participation) and it is sensitive to change over time (Gold, L. H., J. Am. Acad. Psychiatry Law 42, 9 (2014). Each item in the assessment is rated on a scale ranging from no problems to extreme problems (Üstün, T. B. et al., Measuring health and disability: Manual for WHO disability assessment schedule WHODAS 2.0. (World Health Organization, 2010)). To capture inter-individual variability in disability the WHODAS complex scoring method was used. Raw scores were converted to a metric ranging from 0 (no disability) to 100 (full disability), by calculating the ratio of the participant's score relative to the maximum possible score in each domain as well as to the total score (Id.). A score of 20%-39% was considered mild, 40%-59% was moderate, 60%-79% was moderate-severe and 80%-100% was severe. Scores from baseline were compared to scores from one-month post treatment.

[12] = system: brain-derived neurotrophic factor (BDNF) and glial cell line-derived neurotrophic factor (GDNF); conditions: literature; cited from earlier work
[13] = system: special operations veterans with history of TBI; assay: Safety monitoring during and after ibogaine treatment (adverse events, QTc by ECG); format: in vivo, human
Description: 12 participants (40%) were treated for headache. 7 (23%) for nausea. 3 (10%) for anxiety. 2 (7%) for hypertension, and 1 (3%) for insomnia.
as §1

[14] = following treatment vs baseline
[15] = effect size, Baseline vs One-Month
[16] = effect size, Baseline vs Post-Treatment

CCC1CC2CC3c4[nH]c5ccc(OC)cc5c4CCN(C2)C13 (stereo not drawn) [ibogaine]
Cortical neuron dendritic arbor complexity [1]: increases cortical neuron dendritic arbor complexity | White matter hypointensities (corrected for cerebral white matter) ([2]; baseline vs. one month post treatment, two-tailed p = 0.0789): Two-tailed: no significant differences | Subcortical Gray Matter volume ([2]; baseline vs. one month post treatment, two-tailed p = 0.0949): Two-tailed: no significant differences | Total Gray Matter volume ([2]; baseline vs. one month post treatment, two-tailed p = 0.4755): Two-tailed: no significant differences | Cortical Gray Matter volume ([2]; baseline vs. one month post treatment, two-tailed p = 0.4847): Two-tailed: no significant differences | Right hemisphere mean thickness ([2]; one month after treatment vs baseline, two-tailed): no significant difference | Left hemisphere mean thickness ([2]; one month after treatment vs baseline, two-tailed p=0.7146): no significant difference | half-life [3]: about 7.5 hours | Suicidal Ideation (MADR Q10), % Reporting ([4]; 1-mo. post, mild TBI, N 28, baseline 46%): 7% | Cohen's D on clinician rated psychiatric assessments (depression) [4, 14]: > 2 | Remission rate for comorbid depression ([4]; secondary analyses): around 80% | Cohen's D on clinician rated psychiatric assessments (PTSD) [5, 14]: > 2 | Remission rate for comorbid PTSD ([5]; secondary analyses): around 80% | Cohen's D on clinician rated psychiatric assessments (anxiety) [6, 14]: > 2 | Remission rate for comorbid anxiety ([6]; secondary analyses): around 80% | Estimated brain age compared to aiTBS [7]: reducing in estimated brain age | Affinity for neurotransmitter receptors [8]: moderate-to-weak affinity | People who may suffer cardiac arrest when treated [9]: Approximately 1 in 300 | Declines across any performance domain [10]: No declines | Executive functioning effect size D [10]: 0.31-1.22 | Performance change in language (semantic fluency) [10]: No significant performance changes | Phonemic Fluency (D-KEFS Verbal Fluency) [10]: 64.0 ± 10.1 T score | Processing speed effect size D [10]: 0.97-1.34 | Reaction Time (CPT-3 Reaction Time) [10]: 44.1 ± 6.8 T score and 46.4 ± 8.1 T score | Slowing of reaction time effect size D [10]: 0.29-0.52 | Sustained Attention (CPT-3 Hit Reaction Time Block Change) [10]: 50.8 ± 7.9 T score and 51.2 ± 7.7 T score | Sustained attention accuracy (detection) effect size D [10]: 0.86-1.05 | Verbal Memory (HVLT-R) [10]: 49.0 ± 9.2 T score | Working Memory (WMI (WAIS-IV)) ([10]; iv): 57.0 ± 9.5 T score | WHODAS 2.0 Subscale Self Care ([11]; One-Month, mean, SD 2.9%): 1.0% ± | WHODAS 2.0 Subscale Mobility ([11]; One-Month, mean, SD 3.3%): 1.3% ± | WHODAS 2.0 Subscale Cognition ([11]; One-Month, mean, SD 7.9%, baseline 36.1% ± 14.6%): 5.0% ± | WHODAS 2.0 Subscale Interpersonal ([11]; One-Month, mean, SD 9.5%, baseline 32.3% ± 20.4): 4.8% ± | WHODAS 2.0 Subscale Community Participation ([11]; One-Month, mean, SD 13.1%, baseline 35.6% ± 21.1%): 5.9% ± | WHODAS 2.0 Subscale Life Activities ([11]; One-Month, mean, SD 16.2%, baseline 41.1% ± 24.8%): 9.1% ± | WHODAS 2.0 Subscale Self Care ([11]; Post-Treatment, mean, SD 4.7%): 1.9% ± | WHODAS 2.0 Subscale Mobility ([11]; Post-Treatment, mean, SD 13.5%): 7.2% ± | WHODAS 2.0 Subscale Mobility, D [11, 15]: 0.83 | WHODAS 2.0 Subscale Self Care, D [11, 15]: 0.51 | WHODAS 2.0 Subscale Cognition, D [11, 16]: 0.96 | WHODAS 2.0 Subscale Community Participation, D [11, 16]: 0.53 | WHODAS 2.0 Subscale Interpersonal, D [11, 16]: 0.60 | WHODAS 2.0 Subscale Life Activities, D [11, 16]: 0.48 | WHODAS 2.0 Subscale Mobility, D [11, 16]: 0.53 | WHODAS 2.0 Subscale Self Care, D [11, 16]: 0.37 | Transcription of neurotrophic factors BDNF and GDNF [12]: increases the transcription | Unexpected or serious treatment-emergent side effects / adverse events ([13]; 30 participants, oral ibogaine 12.1±1.2 mg/kg with iv magnesium sulfate, 1.2 mg/kg): no unexpected or serious treatment-emergent side effects; also recorded: no serious or unexpected adverse events | Concerning prolongation of QTc ([13]; continuous 5-lead ECG): no instances of a concerning prolongation of QTc | Participants treated for insomnia ([13]; during oneirogenic effects, 1 participant): 3% | Participants treated for hypertension ([13]; during oneirogenic effects, 2 participants): 7% | Participants treated for anxiety ([13]; during oneirogenic effects, 3 participants): 10% | Participants treated for nausea ([13]; during oneirogenic effects, 7 participants): 23% | Participants treated for headache ([13]; during oneirogenic effects, 12 participants): 40%

CC[C@H]1CC2C[C@H]3c4[nH]c5ccc(O)cc5c4CCN(C2)C13 [noribogaine]
Affinity for neurotransmitter receptors [8]: moderate-to-weak affinity
